Assay results reported in publication PMC8150775, “Repositioning Azelnidipine as a Dual Inhibitor Targeting CD47/SIRPα and TIGIT/PVR Pathways for Cancer Immuno-Therapy” (Biomolecules, 2021).

Legend:
human TIGIT/PVR = biological target: T1, human TIGIT/PVR (Homo sapiens, UniProt P15151); experiment: Blocking assay, human PVR protein binding to CHOK1-hTIGIT cells; conditions: concentration gradient; read-out: IC50, blocking human TIGIT/PVR (hPVR binding)
T1 construct: purchased ACRO Biosystem CD5-H82F6; host or cells: soluble protein purchased; TIGIT on CHOK1-hTIGIT cells (lenti-viral transfection)
Procedure: The abilities of small molecule inhibitors (SMIs) (purchased from TargetMol, Shanghai, China) to block the binding of SIRPα protein to CHOK1-CD47 cells or PVR protein to CHOK1-TIGIT cells were determined by flow cytometry, as previously reported. The SMIs at indicated concentrations were incubated with Fc-tagged SIRPα or PVR protein for 30 min at 4°C, followed by incubating with the indicated cells for another 30 min. Human SIRPα protein (SIA-H5251, ACRO Biosystem, Beijing, China), mouse SIRPα protein (SIA-M5258, ACRO Biosystem, Beijing, China), human PVR protein (CD5-H82F6, ACRO Biosystem, Beijing, China), and mouse PVR protein (50259-M03H, Sino Biological, Beijing, China) were used. PE-conjugated anti-human IgG antibody was used to detect the Fc protein bind to cells. Cells incubated with the Fc proteins and anti-human IgG antibody without the SMIs serve as the positive control. The mean fluorescent intensity (MFI) of each sample was detected and recorded by a flow cytometry. The blocking efficacy of the SMIs was calculated as the equation: (MFI of the positive control-MFI of the SMI)/MFI of the positive control × 100%.

various tumor cells = system: various tumor cells; design: method as in earlier work; conditions: cited from earlier work
MC38 cells = experiment: Phagocytosis assay, BMDM co-cultured with GFP+ MC38 cells; format: cell-based, mouse; conditions: 20 μM, 4 h
Procedure: Bone marrow-derived macrophage (BMDM) cells were isolated from C57BL/6 or BALB/c mice and induced with 20 ng/mL of GM-CSF (Peprotech, Rocky Hill, CT, USA) for 7 days. Meanwhile, the medium was replaced with fresh medium containing the cytokine and the adherent cells were harvested. Phagocytosis assays were performed by a co-culture of the BMDM macrophages with carboxyfluorescein succinimidyl ester-labeled (CFSE^+) or GFP^+ tumor cells at a ratio of 1:4 in a serum-free medium at 37 °C for 4 h, in low-attachment 96-well tissue culture plates (Corning, New York, NY, USA). The cells were harvested and the macrophages were identified by a flow cytometry using anti-F4/80 antibody (eBioscience, San Diego, CA, USA). Then, 7-AAD (eBioscience) was used to exclude the dead cells. The effects of azelnidipine (20 μM) on phagocytosis by BMDM cells were tested, and the anti-CD47 antibody (clone: miap301) were used as the positive control. Phagocytosis rate was determined with the formulation: F4/80^+GFP^+ or F4/80^+CFSE^+ cells/ Total F4/80^+ cells.
Figure 4 Azelnidipine enhances macrophage mediated phagocytosis of the tumor cells. The effects of the azelnidipine on the phagocytosis of the macrophages were tested by a co-culture of the tumor cells and BMDM cell derived from C57BL/6 or BALB/c mice. […] GFP^+ or CFSE^+ BMDMs were detected by a flow cytometry. […]

T1 sequence (P15151 21-343 limits assumed): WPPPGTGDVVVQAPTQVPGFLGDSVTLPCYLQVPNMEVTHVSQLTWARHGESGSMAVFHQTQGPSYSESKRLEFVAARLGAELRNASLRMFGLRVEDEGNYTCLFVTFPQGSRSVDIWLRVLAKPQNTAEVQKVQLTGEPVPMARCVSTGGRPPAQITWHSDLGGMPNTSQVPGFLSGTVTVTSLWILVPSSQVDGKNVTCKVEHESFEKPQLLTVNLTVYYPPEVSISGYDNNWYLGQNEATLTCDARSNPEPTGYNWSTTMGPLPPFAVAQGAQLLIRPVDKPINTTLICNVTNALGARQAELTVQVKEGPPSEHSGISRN

**Q.** For `CC1=C(C(=O)OC(C)C)C(c2cccc([N+](=O)[O-])c2)C(C(=O)OC2CN(C(c3ccccc3)c3ccccc3)C2)=C(N)N1` (stereo not drawn) [Azelnidipine], which IC50 (human TIGIT/PVR) is on record?
**A.** ~28 µM

**Q.** What about the “growth of various tumor cells in vitro” value (various tumor cells) of the same molecule?
**A.** inhibit the growth of various tumor cells in vitro

**Q.** What about the “phagocytosis of MC38 cells by BMDM cells” value (MC38 cells) of the same molecule?
**A.** significantly enhance
